Source: patent US12673946B2, “Pyrimidin-4(3H)-one derivatives as TRPV4 antagonists” (RaQualia Pharma Inc., priority 2020, dated 2026)

Target: T1, human TRPV4 (Homo sapiens, UniProt Q9HBA0)
T1 construct: host or cells: tetracycline-inducible Flp-In T-REx 293 cells
Assay: Hypotonicity-induced Ca2+ influx (Fluo-4, FDSS)
Type: cell-based
Summary of the method: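 Flp-In T-REx 293 cells with tetracycline-induced human TRPV4, loaded with Fluo-4 for 60 min at 25 °C. Compound added 5 min before hypotonic mannitol/CaCl2 solution. Ca2+ signal recorded for 4.5 min on FDSS.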

[1] = Flp-In T-REx 293 cells expressing human TRPV4, examples listed under heading 'Human IC50<50 nM'
[2] = Flp-In T-REx 293 cells stably expressing human TRPV4, compounds listed by potency bin (<10 nM Tables 96-1/96-2, <3 nM Table 97)

T1 sequence (Q9HBA0 whole entry): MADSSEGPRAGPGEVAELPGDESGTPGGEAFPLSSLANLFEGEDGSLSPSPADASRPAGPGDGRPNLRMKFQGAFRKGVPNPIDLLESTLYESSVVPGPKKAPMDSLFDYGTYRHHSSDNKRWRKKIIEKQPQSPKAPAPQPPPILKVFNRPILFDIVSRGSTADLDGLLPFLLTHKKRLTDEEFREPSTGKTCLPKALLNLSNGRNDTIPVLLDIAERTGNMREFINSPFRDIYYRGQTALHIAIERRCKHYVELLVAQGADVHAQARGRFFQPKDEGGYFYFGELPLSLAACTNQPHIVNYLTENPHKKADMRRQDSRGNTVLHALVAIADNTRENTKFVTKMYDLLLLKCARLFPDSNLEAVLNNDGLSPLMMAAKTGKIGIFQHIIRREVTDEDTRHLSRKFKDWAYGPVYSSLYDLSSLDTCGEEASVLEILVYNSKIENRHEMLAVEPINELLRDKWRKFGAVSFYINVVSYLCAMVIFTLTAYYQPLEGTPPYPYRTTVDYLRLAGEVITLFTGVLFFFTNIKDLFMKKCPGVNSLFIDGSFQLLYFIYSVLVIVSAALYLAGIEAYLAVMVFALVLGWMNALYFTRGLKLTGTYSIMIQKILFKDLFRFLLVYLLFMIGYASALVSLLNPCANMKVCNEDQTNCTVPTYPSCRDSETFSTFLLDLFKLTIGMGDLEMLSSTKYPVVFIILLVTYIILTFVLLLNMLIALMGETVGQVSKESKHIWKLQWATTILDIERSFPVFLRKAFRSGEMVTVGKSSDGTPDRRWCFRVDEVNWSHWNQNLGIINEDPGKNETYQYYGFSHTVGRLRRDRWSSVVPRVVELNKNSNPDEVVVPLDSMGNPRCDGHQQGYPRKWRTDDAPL

Row | IC50 [1] [nM] | IC50 [2] [nM] | Compound
1 | < 50 | < 10 | O=C(N1CCCc2nc(C3(c4ccccc4)CC3)[nH]c(=O)c2C1)C(F)(F)c1cccc(-c2cccc(OC(F)(F)F)c2)c1 [58-5]
2 | < 50 | < 10 | O=C([C@H](O)c1cccc(-c2cccc(OC(F)(F)F)c2)c1)N1CCc2nc(C3(c4cccc(Cl)c4)CC3)[nH]c(=O)c2C1 [45-7]
3 | < 50 | < 10 | O=C(N1CCCc2nc(C3(c4ccccc4)CC3)[nH]c(=O)c2C1)C(F)(F)c1cccc(-c2cccc(C(F)(F)F)c2)c1 [58-1]
4 | < 50 | < 3 | O=C([C@H](O)c1cccc(-c2ccc(F)c(Cl)c2)c1)N1CCc2nc(C3(c4ccccc4)CC3)[nH]c(=O)c2C1 [44-82]
5 | < 50 | < 10 | O=C(C(O)c1cccc(-c2cccc(OC(F)(F)F)c2)c1)N1CCCc2nc(C3(c4ccccc4)CC3)[nH]c(=O)c2C1 (stereo not shown) [49-7]
6 | < 50 |  | O=C([C@H](O)c1cccc(-c2cccc(Cl)c2Cl)c1)N1CCc2nc(C3(c4ccccc4)CC3)[nH]c(=O)c2C1 [44-109]
7 | < 50 |  | Cc1cc(F)cc(-c2cccc(C(O)C(=O)N3CCc4nc(C5(c6ccccc6)CC5)[nH]c(=O)c4C3)c2)c1 (stereo not shown) [44-35]
8 | < 50 |  | O=C(C(O)c1cccc(-c2cc(F)cc(F)c2)c1)N1CCc2nc(C3(c4ccccc4)CC3)[nH]c(=O)c2C1 (stereo not shown) [44-45]
9 | < 50 | < 10 | O=C(C(O)c1cccc(-c2cc(F)cc(Cl)c2)c1)N1CCc2nc(C3(c4ccccc4)CC3)[nH]c(=O)c2C1 (stereo not shown) [44-11]
10 | < 50 | < 10 | Cn1ncc2c(-c3cccc(C4(c5nc6c(c(=O)[nH]5)CN(C(=O)[C@H](O)c5cccc(C(F)(F)F)c5)CCC6)CC4)c3)cccc21 [42-24]
11 | < 50 | < 3 | O=C([C@H](O)c1cccc(-c2ccnc(C(F)(F)F)c2)c1)N1CCCc2nc(C3(c4ccccc4)CC3)[nH]c(=O)c2C1 [49-17]
12 | < 50 | < 3 | N#Cc1ccc(-c2cccc([C@@H](O)C(=O)N3CCCc4nc(C5(c6cccc(Cl)c6)CC5)[nH]c(=O)c4C3)c2)cc1 [50-20]
13 | < 50 | < 10 | CC(C)c1cncc(C2(c3nc4c(c(=O)[nH]3)CN(C(=O)[C@H](O)c3cccc(-c5ccc(OC(F)(F)F)cc5)c3)CC4)CC2)c1 [47-6]
14 | < 50 | < 10 | N#Cc1cc(C#N)cc(-c2cccc(C3(c4nc5c(c(=O)[nH]4)CN(C(=O)[C@H](O)c4cccc(C(F)(F)F)c4)CCC5)CC3)c2)c1 [42-71]
15 | < 50 | < 10 | O=C([C@H](O)c1cccc(C(F)(F)F)c1)N1CCCc2nc(C3(c4cccc(C5=CCN(C(=O)C6(C(F)(F)F)CC6)CC5)c4)CC3)[nH]c(=O)c2C1 [42-72]
16 | < 50 | < 3 | CC(C)c1cccc(C2(c3nc4c(c(=O)[nH]3)CN(C(=O)[C@H](O)c3cccc(C5=CCCC5)c3)CCC4)CC2)c1 [51-7]
17 | < 50 | < 10 | O=C([C@H](O)c1cccc(-c2coc3ccccc23)c1)N1CCc2nc(C3(c4ccccc4)CC3)[nH]c(=O)c2C1 [44-112]
18 | < 50 |  | CC(C)(C)c1cccc(-c2cccc(C(O)C(=O)N3CCc4nc(C5(c6ccccc6)CC5)[nH]c(=O)c4C3)n2)c1 (stereo not shown) [48-9]
19 | < 50 | < 10 | O=C([C@H](O)c1cccc(-c2cc(Cl)cc(C(F)(F)F)c2)c1)N1CCCc2nc(C3(c4cccc(Cl)c4)CC3)[nH]c(=O)c2C1 [50-17]
20 | < 50 | < 10 | O=C([C@H](O)c1cccc(C(F)(F)F)c1)N1CCCc2nc(C3(c4cccc(C5=CCN(S(=O)(=O)Cc6ccccc6)CC5)c4)CC3)[nH]c(=O)c2C1 [42-78]
21 | < 50 | < 3 | O=C([C@H](O)c1cccc(-c2cccc(Cl)c2)c1)N1CCCc2nc(C3(c4ccccc4)CC3)[nH]c(=O)c2C1 [49-15]
22 | < 50 |  | O=C(C(O)c1cccc(-c2cccc(Cl)c2)n1)N1CCc2nc(C3(c4ccccc4)CC3)[nH]c(=O)c2C1 (stereo not shown) [48-8]
23 | < 50 | < 10 | O=C([C@H](O)c1cccc(-c2cccc(C3CC3)c2)c1)N1CCc2nc(C3(c4ccccc4)CC3)[nH]c(=O)c2C1 [44-105]
24 | < 50 | < 10 | O=C(C(O)c1cccc(-c2ccc(-c3ccc(Cl)cc3)cc2)c1)N1CCc2nc(C3(c4ccccc4)CC3)[nH]c(=O)c2C1 (stereo not shown) [44-118]
25 | < 50 |  | O=C(C(O)c1cccc(-c2ccc(F)c(F)c2)c1)N1CCc2nc(C3(c4ccccc4)CC3)[nH]c(=O)c2C1 (stereo not shown) [44-49]
26 | < 50 | < 10 | O=C(C(O)c1cccc(-c2cccc(OC(F)(F)F)c2)c1F)N1CCc2nc(C3(c4ccccc4)CC3)[nH]c(=O)c2C1 (stereo not shown) [44-2]
27 | < 50 | < 10 | CC(C)c1cncc(C2(c3nc4c(c(=O)[nH]3)CN(C(=O)[C@H](O)c3cccc(-c5cccc(C(F)(F)F)c5)c3)CCC4)CC2)c1 [55-5]

The remaining lines, values behind:

Row | Compound | IC50 [1] [nM] | IC50 [2] [nM]
28 | O=C([C@H](O)c1cccc(Cl)c1)N1CCc2nc(C3(c4cc(C5CCC(F)(F)CC5)cs4)CC3)[nH]c(=O)c2C1 [23-1, (R)-6-(2-(3-chlorophenyl)-2-hydroxyacetyl)-2-(1-(4-(4,4-difluorocyclohexyl)thiophen-2-yl)cyclopropyl)-5,6,7,8-tetrahydropyrido[4,3-d]pyrimidin-4(3H)-one] | < 50 | < 10
29 | O=C(N1CCCc2nc(C3(c4cncc(-c5ccccc5)c4)CC3)[nH]c(=O)c2C1)C(F)(F)c1cccc(C(F)(F)F)c1 [22-4] | < 50 | < 3
30 | O=C(C(O)c1cc(Cl)cc(Cl)c1)N1CCc2nc(C3(c4ccccc4)CC3)[nH]c(=O)c2C1 (stereo not shown) [3-62] | < 50 | 
31 | O=C([C@H](O)c1cccc(F)c1F)N1CCc2nc(C3(c4ccccc4)CC3)[nH]c(=O)c2C1 [2-34, (R)-(−)-6-(2-(2,3-difluorophenyl)-2-hydroxyacetyl)-2-(1-phenylcyclopropyl)-5,6,7,8-tetrahydropyrido[4,3-d]pyrimidin-4(3H)-one] | < 50 | 
32 | O=C([C@H](O)c1cccc(C(F)(F)F)c1)N1CCCc2nc(C3(c4cccc(Oc5ccccc5)c4)CC3)[nH]c(=O)c2C1 [17-72] | < 50 | < 10
33 | O=C([C@H](O)c1cccc(C(F)(F)F)c1)N1CCc2nc(C3(c4cncc(-c5ccccc5)c4)CC3)[nH]c(=O)c2C1 [38-1] | < 50 | < 3
34 | O=C(C(O)c1cccc(-c2ccc(Cl)cc2)c1)N1CCCc2nc(C3(c4cccs4)CC3)[nH]c(=O)c2C1 (stereo not shown) [18-5] | < 50 | < 10
35 | O=C(C(O)c1cccc(OCc2ccccc2)c1)N1CCc2nc(C3(c4cccc(Cl)c4)CC3)[nH]c(=O)c2C1 (stereo not shown) [14-106] | < 50 | < 10
36 | O=C(Cc1cccc(-c2ccc(Cl)cc2)c1)N1CCCc2nc(C3(c4cccc(Cl)c4)CC3)[nH]c(=O)c2C1 [17-130] | < 50 | < 10
37 | O=C(Cc1cccc(OCc2ccccc2)c1)N1CCCc2nc(C3(c4cccc(Cl)c4)CC3)[nH]c(=O)c2C1 [17-122] | < 50 | < 10
38 | O=C(Cc1cccc(-c2ccc(C(F)(F)F)cc2)c1)N1CCCc2nc(C3(c4cccc(Cl)c4)CC3)[nH]c(=O)c2C1 [17-128] | < 50 | < 10
39 | O=C(N1CCc2nc(C3(c4cccc(Cl)c4)CC3)[nH]c(=O)c2C1)C(F)(F)c1cccc(C(F)(F)F)c1 [20-10] | < 50 | 
40 | O=C([C@H](O)c1cccc(C(F)(F)F)c1)N1CCc2nc(C3(c4cccc(C5CCCC5)c4)CC3)[nH]c(=O)c2C1 [27-2] | < 50 | < 10
41 | O=C([C@H](O)c1cccc(C(F)(F)F)c1)N1CCc2nc(C3(c4cncc(C5CCCCC5)c4)CC3)[nH]c(=O)c2C1 [28-2] | < 50 | < 10
42 | O=C([C@H](O)c1cccc(Cl)c1)N1CCCc2nc(C3(c4cccs4)CC3)[nH]c(=O)c2C1 [18-12] | < 50 | 
43 | O=C(C(O)c1cccc(C(F)(F)F)c1)N1CCc2nc(C3(c4ccccc4)CC3)[nH]c(=O)c2C1 (stereo not shown) [3-66] | < 50 | 
44 | CC(C)c1cccc(C2(c3nc4c(c(=O)[nH]3)CN(C(=O)C(O)c3cccc(-c5cccc(C(F)(F)F)c5)c3)CCC4)CC2)c1 (stereo not shown) [17-45] | < 50 | 
45 | O=C([C@H](O)c1cccc(Cl)c1)N1CCCc2nc(C3(c4cccc(C5CCCCC5)c4)CC3)[nH]c(=O)c2C1 [29-2, (R)-6-(2-(3-chlorophenyl)-2-hydroxyacetyl)-2-(1-(3-cyclohexylphenyl)cyclopropyl)-3,5,6,7,8,9-hexahydro-4H-pyrimido[5,4-c]azepin-4-one] | < 50 | < 3
46 | O=C(N1CCCc2nc(C3(c4cccc(F)c4)CC3)[nH]c(=O)c2C1)C(F)(F)c1cccc(C(F)(F)F)c1 [20-3] | < 50 | < 3
47 | O=C(C(O)c1cccc(-c2cccc(OC(F)(F)F)c2)c1)N1CCc2nc(C3(c4cccc(Cl)c4)CC3)[nH]c(=O)c2C1 (stereo not shown) [14-5] | < 50 | < 10
48 | CC(C)c1cncc(C2(c3nc4c(c(=O)[nH]3)CN(C(=O)C(O)c3cccc(C(F)(F)F)c3F)CCC4)CC2)c1 (stereo not shown) [19-7] | < 50 | 
49 | O=C(C(O)c1cccc(Oc2ccccc2)c1)N1CCc2nc(C3(c4cccc(Cl)c4)CC3)[nH]c(=O)c2C1 (stereo not shown) [14-21] | < 50 | 
50 | O=C(C(O)c1cccc(-c2ccc(Cl)cc2)c1)N1CCc2nc(C3(c4cccc(F)c4)CC3)[nH]c(=O)c2C1 (stereo not shown) [14-24] | < 50 | 
51 | O=C(C(O)c1cccc(S(F)(F)(F)(F)F)c1)N1CCc2nc(C3(c4ccccc4)CC3)[nH]c(=O)c2C1 (stereo not shown) [14-31] | < 50 | 
52 | CC(C)c1cccc(C2(c3nc4c(c(=O)[nH]3)CN(C(=O)C(F)(F)c3cccc(Cl)c3)CCC4)CC2)c1 [20-8] | < 50 | < 10
53 | O=C(C(O)c1cccc(-c2cccc(OC(F)(F)F)c2)c1)N1CCc2nc(C3(c4cccs4)CC3)[nH]c(=O)c2C1 (stereo not shown) [15-28] | < 50 | < 3
54 | O=C([C@H](O)c1cccc(Cl)c1)N1CCCc2nc(C3(c4cc(-c5cccnc5)cs4)CC3)[nH]c(=O)c2C1 [39-3] | < 50 | 
